# Test system: γδT lymphocyte
# Assay: Induction of γδT lymphocyte proliferation, human peripheral blood cells, BrdU labelling after 3 days of culture
# Format: cell-based
# Description: The activity on γδT lymphocyte proliferation is tested in the following way: human peripheral blood cells are cultured in the presence of an RPMI-type culture medium supplemented with L-glutamine (2 mM), penicillin/streptomycin (50 μg/50 IU/ml) and foetal calf serum (10%). The C-glycoside derivatives are added at various concentrations (10 to 0.05 mM), along with phytohemagglutin (PHA at […]), a positive control for lymphocyte proliferation.
compound,measurement,setting,value
"CC(=O)C[C@H]1O[C@H](CO)[C@@H](O[C@@H]2O[C@H](CO)[C@H](O)[C@H](O)[C@H]2O)[C@H](O)[C@H]1O [Compound 1, 1-(C-β-D-lactopyranosyl)propan-2-one]",% stimulation relative to the control,concentration 0.05 (mM),100%
same,% stimulation relative to the control,concentration 0.1 (mM),110%
same,% stimulation relative to the control,concentration 0.5 (mM),82%
same,% stimulation relative to the control,concentration 1 (mM),108%
same,% stimulation relative to the control,concentration 5 (mM),169%
same,% stimulation relative to the control,concentration 10 (mM),214%
